Active and inactive are the calls of the source.
Each compound was assayed against T1, Glycogen phosphorylase, liver form (Homo sapiens, UniProt P06737). Conditions: read-out: Kd apparent.
T1 sequence (P06737 whole entry): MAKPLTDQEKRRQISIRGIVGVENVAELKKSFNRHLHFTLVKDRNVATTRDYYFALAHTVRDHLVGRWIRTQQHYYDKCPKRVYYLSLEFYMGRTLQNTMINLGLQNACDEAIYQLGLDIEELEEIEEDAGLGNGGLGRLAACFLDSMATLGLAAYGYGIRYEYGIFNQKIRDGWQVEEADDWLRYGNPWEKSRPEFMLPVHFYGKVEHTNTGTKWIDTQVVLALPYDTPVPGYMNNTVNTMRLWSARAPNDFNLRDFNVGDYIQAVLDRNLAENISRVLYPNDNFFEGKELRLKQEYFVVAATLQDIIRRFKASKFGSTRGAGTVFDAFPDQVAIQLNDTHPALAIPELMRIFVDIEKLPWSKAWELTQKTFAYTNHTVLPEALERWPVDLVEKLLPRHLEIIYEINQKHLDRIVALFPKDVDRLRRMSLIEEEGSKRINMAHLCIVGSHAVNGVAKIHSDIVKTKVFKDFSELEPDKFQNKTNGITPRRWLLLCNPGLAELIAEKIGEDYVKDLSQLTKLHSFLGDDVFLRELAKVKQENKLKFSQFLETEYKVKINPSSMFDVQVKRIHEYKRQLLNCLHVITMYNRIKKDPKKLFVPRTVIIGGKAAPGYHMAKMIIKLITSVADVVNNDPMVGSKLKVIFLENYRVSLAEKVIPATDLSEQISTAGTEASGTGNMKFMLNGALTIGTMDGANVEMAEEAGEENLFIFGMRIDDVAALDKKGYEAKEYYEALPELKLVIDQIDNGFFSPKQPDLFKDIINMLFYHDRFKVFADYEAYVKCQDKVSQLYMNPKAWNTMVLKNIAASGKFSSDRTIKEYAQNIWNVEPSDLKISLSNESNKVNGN
Type: subcellular, K-562, COLO 205, SK-N-BE(2) and MV-4-11, Cell lysate
With `N[C@@H]1CCCN(c2c(/C=C3\SC(=O)NC3=O)cccc2-c2ccccc2)C1` the Kd was > 30 µM (inactive).
`CN1CC[C@@H](c2c(O)cc(O)c3c(=O)cc(-c4ccccc4Cl)oc23)[C@@H]1CO` was tested, and the Kd was > 30 µM (inactive).
For `Cc1cc(-c2cc(O)ccc2Cl)cc2nnc(Nc3ccc(OCCN4CCCC4)cc3)nc12`, the Kd was > 30 µM (inactive).

Each compound was assayed against T2, Peroxisomal acyl-coenzyme A oxidase 3 (Homo sapiens, UniProt O15254). Conditions: not given.
T2 sequence (O15254 whole entry): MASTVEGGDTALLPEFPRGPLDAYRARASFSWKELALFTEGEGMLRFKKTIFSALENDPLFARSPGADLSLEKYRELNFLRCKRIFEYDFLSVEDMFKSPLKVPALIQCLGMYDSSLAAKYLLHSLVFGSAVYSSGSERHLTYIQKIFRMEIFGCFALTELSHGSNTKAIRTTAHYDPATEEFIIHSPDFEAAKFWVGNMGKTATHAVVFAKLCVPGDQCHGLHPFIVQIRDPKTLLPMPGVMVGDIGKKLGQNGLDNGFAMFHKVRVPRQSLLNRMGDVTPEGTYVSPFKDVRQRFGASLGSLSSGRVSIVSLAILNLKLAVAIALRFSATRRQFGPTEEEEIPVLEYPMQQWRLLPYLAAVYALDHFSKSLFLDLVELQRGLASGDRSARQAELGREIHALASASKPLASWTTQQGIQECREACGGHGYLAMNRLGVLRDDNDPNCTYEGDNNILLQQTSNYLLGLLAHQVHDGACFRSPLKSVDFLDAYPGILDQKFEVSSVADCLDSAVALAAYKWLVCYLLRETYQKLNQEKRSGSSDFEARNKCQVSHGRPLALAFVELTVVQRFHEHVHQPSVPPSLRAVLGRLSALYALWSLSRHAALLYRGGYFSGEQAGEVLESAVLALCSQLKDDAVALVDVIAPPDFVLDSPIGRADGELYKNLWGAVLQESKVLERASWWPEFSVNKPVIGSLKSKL
With `N[C@@H]1CCCN(c2c(/C=C3\SC(=O)NC3=O)cccc2-c2ccccc2)C1` the Kd was > 30 µM (inactive).
`CN1CC[C@@H](c2c(O)cc(O)c3c(=O)cc(-c4ccccc4Cl)oc23)[C@@H]1CO` was tested, and the Kd was > 30 µM (inactive).
With `Cc1cc(-c2cc(O)ccc2Cl)cc2nnc(Nc3ccc(OCCN4CCCC4)cc3)nc12` the Kd was > 30 µM (inactive).

Each compound was assayed against Activin receptor type-2B (Homo sapiens, UniProt Q13705). Conditions: not given.
Chain of Activin receptor type-2B (Q13705 whole entry): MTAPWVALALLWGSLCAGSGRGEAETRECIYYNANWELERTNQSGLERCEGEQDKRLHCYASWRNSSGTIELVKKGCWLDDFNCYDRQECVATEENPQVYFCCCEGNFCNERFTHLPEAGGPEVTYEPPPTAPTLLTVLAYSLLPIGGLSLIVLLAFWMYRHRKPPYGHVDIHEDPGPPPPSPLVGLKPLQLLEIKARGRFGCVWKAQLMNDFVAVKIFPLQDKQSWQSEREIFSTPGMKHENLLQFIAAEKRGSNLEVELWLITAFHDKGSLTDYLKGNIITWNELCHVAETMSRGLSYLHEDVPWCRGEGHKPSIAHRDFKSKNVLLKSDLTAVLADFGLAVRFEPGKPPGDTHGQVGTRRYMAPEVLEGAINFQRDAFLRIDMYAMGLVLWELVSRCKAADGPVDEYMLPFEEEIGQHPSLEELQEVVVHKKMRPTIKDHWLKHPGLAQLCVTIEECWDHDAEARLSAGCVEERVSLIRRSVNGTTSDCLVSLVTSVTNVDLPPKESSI
In the case of `N[C@@H]1CCCN(c2c(/C=C3\SC(=O)NC3=O)cccc2-c2ccccc2)C1`, the Kd was > 30 µM (inactive).
In the case of `CN1CC[C@@H](c2c(O)cc(O)c3c(=O)cc(-c4ccccc4Cl)oc23)[C@@H]1CO`, the Kd was > 30 µM (inactive).
`Cc1cc(-c2cc(O)ccc2Cl)cc2nnc(Nc3ccc(OCCN4CCCC4)cc3)nc12` was tested, and the Kd was > 30 µM (inactive).

These compounds were tested against Serine/threonine-protein kinase MRCK beta (Homo sapiens, UniProt Q9Y5S2). Conditions: not given.
Chain of Serine/threonine-protein kinase MRCK beta (Q9Y5S2 whole entry): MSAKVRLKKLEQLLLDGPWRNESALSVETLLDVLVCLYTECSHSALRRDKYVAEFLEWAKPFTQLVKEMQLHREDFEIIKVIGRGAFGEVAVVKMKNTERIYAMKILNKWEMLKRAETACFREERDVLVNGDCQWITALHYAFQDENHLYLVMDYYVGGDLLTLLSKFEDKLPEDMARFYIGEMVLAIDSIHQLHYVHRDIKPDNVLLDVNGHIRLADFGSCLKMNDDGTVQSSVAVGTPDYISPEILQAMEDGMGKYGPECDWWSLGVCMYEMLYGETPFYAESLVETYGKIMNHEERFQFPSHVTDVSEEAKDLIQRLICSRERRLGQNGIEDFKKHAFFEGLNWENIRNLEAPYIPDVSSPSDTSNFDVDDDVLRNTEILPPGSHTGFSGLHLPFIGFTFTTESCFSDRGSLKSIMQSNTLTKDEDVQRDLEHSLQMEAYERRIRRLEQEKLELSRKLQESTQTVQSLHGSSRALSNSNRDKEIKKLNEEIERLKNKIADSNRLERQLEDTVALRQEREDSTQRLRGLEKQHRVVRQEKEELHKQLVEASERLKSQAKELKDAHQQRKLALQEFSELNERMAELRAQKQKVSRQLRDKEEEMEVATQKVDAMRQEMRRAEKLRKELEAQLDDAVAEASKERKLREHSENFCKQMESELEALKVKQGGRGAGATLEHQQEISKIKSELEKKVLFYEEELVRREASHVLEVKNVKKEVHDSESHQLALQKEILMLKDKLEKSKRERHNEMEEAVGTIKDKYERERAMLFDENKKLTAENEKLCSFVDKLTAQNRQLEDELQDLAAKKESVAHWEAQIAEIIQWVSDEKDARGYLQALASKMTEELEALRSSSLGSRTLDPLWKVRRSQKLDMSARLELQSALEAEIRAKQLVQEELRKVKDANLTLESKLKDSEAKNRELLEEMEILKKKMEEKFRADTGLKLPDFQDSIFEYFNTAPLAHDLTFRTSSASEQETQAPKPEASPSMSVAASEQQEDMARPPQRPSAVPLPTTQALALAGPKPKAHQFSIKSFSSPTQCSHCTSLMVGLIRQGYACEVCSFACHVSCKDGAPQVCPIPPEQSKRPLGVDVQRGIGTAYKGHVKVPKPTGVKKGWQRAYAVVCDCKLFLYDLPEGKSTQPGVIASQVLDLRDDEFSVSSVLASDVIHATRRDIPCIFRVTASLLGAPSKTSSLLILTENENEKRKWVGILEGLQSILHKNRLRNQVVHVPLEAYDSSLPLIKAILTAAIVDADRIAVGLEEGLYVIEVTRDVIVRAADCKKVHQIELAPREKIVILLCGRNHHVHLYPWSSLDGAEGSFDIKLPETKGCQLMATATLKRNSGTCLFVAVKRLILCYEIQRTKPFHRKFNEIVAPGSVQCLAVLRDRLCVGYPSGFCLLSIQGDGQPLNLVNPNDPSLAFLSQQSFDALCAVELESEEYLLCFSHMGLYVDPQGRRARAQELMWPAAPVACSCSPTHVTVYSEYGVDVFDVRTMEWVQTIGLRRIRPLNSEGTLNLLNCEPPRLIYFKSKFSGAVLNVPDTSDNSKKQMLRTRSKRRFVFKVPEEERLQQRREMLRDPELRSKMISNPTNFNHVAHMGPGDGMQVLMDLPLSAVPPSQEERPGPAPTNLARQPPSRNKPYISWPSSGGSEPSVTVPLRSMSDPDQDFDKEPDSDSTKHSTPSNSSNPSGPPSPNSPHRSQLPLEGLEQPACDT
With `N[C@@H]1CCCN(c2c(/C=C3\SC(=O)NC3=O)cccc2-c2ccccc2)C1` the Kd was > 30 µM (inactive).
With `CN1CC[C@@H](c2c(O)cc(O)c3c(=O)cc(-c4ccccc4Cl)oc23)[C@@H]1CO` the Kd was > 30 µM (inactive).
With `Cc1cc(-c2cc(O)ccc2Cl)cc2nnc(Nc3ccc(OCCN4CCCC4)cc3)nc12` the Kd was > 30 µM (inactive).

What follows are compounds tested against Cyclin-dependent kinase 4 (Homo sapiens, UniProt P11802). Conditions: not given.
Chain of Cyclin-dependent kinase 4 (P11802 whole entry): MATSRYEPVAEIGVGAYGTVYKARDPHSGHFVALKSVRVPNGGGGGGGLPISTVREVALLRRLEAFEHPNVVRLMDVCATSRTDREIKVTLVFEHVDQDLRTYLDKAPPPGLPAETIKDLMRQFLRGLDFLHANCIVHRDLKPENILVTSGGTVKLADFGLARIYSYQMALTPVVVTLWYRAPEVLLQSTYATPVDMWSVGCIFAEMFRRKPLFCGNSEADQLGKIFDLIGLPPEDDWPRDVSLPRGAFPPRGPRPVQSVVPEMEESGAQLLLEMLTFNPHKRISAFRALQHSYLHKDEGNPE
`N[C@@H]1CCCN(c2c(/C=C3\SC(=O)NC3=O)cccc2-c2ccccc2)C1` was tested, and the Kd was > 30 µM (inactive).
For `CN1CC[C@@H](c2c(O)cc(O)c3c(=O)cc(-c4ccccc4Cl)oc23)[C@@H]1CO`, the Kd was > 30 µM (inactive).
For `Cc1cc(-c2cc(O)ccc2Cl)cc2nnc(Nc3ccc(OCCN4CCCC4)cc3)nc12`, the Kd was > 30 µM (inactive).

Each compound was assayed against T3, Delta(24)-sterol reductase (Homo sapiens, UniProt Q15392). Conditions: not given.
T3 sequence (Q15392 whole entry): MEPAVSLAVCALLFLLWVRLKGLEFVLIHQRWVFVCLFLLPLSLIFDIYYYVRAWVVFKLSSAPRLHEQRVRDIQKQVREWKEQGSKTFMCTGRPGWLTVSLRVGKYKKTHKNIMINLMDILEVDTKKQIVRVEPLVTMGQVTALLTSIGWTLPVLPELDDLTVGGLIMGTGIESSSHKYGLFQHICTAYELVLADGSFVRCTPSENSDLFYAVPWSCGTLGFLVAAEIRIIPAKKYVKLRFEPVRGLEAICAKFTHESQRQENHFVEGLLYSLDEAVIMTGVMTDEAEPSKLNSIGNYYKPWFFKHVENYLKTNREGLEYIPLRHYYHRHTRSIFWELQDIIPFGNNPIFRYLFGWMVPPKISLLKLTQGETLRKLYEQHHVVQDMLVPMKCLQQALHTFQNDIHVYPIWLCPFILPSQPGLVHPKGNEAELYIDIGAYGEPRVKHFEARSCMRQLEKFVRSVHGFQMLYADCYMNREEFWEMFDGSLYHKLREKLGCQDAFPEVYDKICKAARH
For `N[C@@H]1CCCN(c2c(/C=C3\SC(=O)NC3=O)cccc2-c2ccccc2)C1`, the Kd was > 30 µM (inactive).
In the case of `CN1CC[C@@H](c2c(O)cc(O)c3c(=O)cc(-c4ccccc4Cl)oc23)[C@@H]1CO`, the Kd was > 30 µM (inactive).
`Cc1cc(-c2cc(O)ccc2Cl)cc2nnc(Nc3ccc(OCCN4CCCC4)cc3)nc12` was tested, and the Kd was > 30 µM (inactive).

The compounds below were run against Tyrosine-protein kinase Fyn (Homo sapiens, UniProt P06241). Conditions: not given.
Chain of Tyrosine-protein kinase Fyn (P06241 whole entry): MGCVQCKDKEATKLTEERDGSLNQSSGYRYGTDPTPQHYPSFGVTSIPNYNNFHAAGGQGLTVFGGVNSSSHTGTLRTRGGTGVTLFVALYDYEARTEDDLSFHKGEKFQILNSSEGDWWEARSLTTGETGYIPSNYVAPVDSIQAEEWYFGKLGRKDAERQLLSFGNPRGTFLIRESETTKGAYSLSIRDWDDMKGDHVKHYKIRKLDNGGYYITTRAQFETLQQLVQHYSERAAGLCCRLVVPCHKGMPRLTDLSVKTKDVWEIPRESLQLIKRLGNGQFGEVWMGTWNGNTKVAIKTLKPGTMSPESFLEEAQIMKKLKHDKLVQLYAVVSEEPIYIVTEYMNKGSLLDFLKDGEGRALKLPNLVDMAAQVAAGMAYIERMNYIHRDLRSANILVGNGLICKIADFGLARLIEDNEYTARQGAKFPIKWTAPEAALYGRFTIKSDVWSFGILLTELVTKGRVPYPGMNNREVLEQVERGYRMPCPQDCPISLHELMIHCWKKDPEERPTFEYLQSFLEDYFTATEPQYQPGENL
`N[C@@H]1CCCN(c2c(/C=C3\SC(=O)NC3=O)cccc2-c2ccccc2)C1` was tested, and the Kd was > 30 µM (inactive).
For `CN1CC[C@@H](c2c(O)cc(O)c3c(=O)cc(-c4ccccc4Cl)oc23)[C@@H]1CO`, the Kd was > 30 µM (inactive).
`Cc1cc(-c2cc(O)ccc2Cl)cc2nnc(Nc3ccc(OCCN4CCCC4)cc3)nc12` was tested, and the Kd was > 30 µM (inactive).

These compounds were tested against Mitogen-activated protein kinase 8 (Homo sapiens, UniProt P45983). Conditions: not given.
Chain of Mitogen-activated protein kinase 8 (P45983 whole entry): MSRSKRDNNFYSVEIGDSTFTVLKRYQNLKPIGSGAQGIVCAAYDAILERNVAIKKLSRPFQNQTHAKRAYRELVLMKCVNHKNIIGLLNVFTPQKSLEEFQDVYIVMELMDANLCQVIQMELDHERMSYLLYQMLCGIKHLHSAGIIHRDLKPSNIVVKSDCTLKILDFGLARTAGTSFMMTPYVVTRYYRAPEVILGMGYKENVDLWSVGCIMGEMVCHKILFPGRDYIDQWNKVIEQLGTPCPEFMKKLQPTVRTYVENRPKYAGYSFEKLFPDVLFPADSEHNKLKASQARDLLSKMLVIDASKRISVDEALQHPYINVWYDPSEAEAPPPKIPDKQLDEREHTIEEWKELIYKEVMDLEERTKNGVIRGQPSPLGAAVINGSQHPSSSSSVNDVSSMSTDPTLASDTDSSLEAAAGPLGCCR
In the case of `N[C@@H]1CCCN(c2c(/C=C3\SC(=O)NC3=O)cccc2-c2ccccc2)C1`, the Kd was > 30 µM (inactive).
In the case of `CN1CC[C@@H](c2c(O)cc(O)c3c(=O)cc(-c4ccccc4Cl)oc23)[C@@H]1CO`, the Kd was > 30 µM (inactive).
`Cc1cc(-c2cc(O)ccc2Cl)cc2nnc(Nc3ccc(OCCN4CCCC4)cc3)nc12` was tested, and the Kd was > 30 µM (inactive).

What follows are compounds tested against cAMP-dependent protein kinase catalytic subunit beta (Homo sapiens, UniProt P22694). Conditions: not given.
`N[C@@H]1CCCN(c2c(/C=C3\SC(=O)NC3=O)cccc2-c2ccccc2)C1` was tested, and the Kd was > 30 µM (inactive).
For `CN1CC[C@@H](c2c(O)cc(O)c3c(=O)cc(-c4ccccc4Cl)oc23)[C@@H]1CO`, the Kd was > 30 µM (inactive).
`Cc1cc(-c2cc(O)ccc2Cl)cc2nnc(Nc3ccc(OCCN4CCCC4)cc3)nc12` was tested, and the Kd was > 30 µM (inactive).

These compounds were tested against T4, Succinate--CoA ligase [ADP-forming] subunit beta, mitochondrial (Homo sapiens, UniProt Q9P2R7). Conditions: not given.
T4 sequence (Q9P2R7 whole entry): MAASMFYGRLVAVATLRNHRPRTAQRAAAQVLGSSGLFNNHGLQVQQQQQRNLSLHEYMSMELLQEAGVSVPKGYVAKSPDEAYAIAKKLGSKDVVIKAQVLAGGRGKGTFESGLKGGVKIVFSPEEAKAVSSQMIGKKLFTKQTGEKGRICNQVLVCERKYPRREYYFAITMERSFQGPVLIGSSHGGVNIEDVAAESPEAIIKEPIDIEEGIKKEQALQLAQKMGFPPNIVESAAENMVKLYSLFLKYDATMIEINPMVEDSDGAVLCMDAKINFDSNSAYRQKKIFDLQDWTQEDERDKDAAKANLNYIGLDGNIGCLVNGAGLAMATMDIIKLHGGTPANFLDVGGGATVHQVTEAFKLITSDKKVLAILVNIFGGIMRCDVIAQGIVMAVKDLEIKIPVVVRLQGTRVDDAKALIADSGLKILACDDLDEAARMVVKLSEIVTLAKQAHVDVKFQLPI
For `N[C@@H]1CCCN(c2c(/C=C3\SC(=O)NC3=O)cccc2-c2ccccc2)C1`, the Kd was > 30 µM (inactive).
`CN1CC[C@@H](c2c(O)cc(O)c3c(=O)cc(-c4ccccc4Cl)oc23)[C@@H]1CO` was tested, and the Kd was > 30 µM (inactive).
With `Cc1cc(-c2cc(O)ccc2Cl)cc2nnc(Nc3ccc(OCCN4CCCC4)cc3)nc12` the Kd was > 30 µM (inactive).

Each compound was assayed against Tyrosine-protein kinase SYK (Homo sapiens, UniProt P43405). Conditions: not given.
`N[C@@H]1CCCN(c2c(/C=C3\SC(=O)NC3=O)cccc2-c2ccccc2)C1` was tested, and the Kd was > 30 µM (inactive).
With `CN1CC[C@@H](c2c(O)cc(O)c3c(=O)cc(-c4ccccc4Cl)oc23)[C@@H]1CO` the Kd was > 30 µM (inactive).
`Cc1cc(-c2cc(O)ccc2Cl)cc2nnc(Nc3ccc(OCCN4CCCC4)cc3)nc12` was tested, and the Kd was > 30 µM (inactive).

From ChEMBL document CHEMBL3991601, “The target landscape of clinical kinase drugs” (Science, 2017)
Also: in the data inactive means no Kd found up to 30 µM.
